Like-named read-outs stand apart in the source and are kept apart here.
Target: USP7 (Homo sapiens (Human), UniProt Q93009)
Assay: USP7 fluorescence polarisation (FP) assay with ubiquitin-Lys-TAMRA substrate
Format: biochemical
Settings: biochemical inhibition
Experimental: USP7 activity was monitored in a fluorescence polarisation (FP) homogeneous assay using the isopeptide ubiquitin-Lys-TAMRA substrate (U-558, Boston Biochem). Full-length USP7 was purchased from Boston Biochem (His6-USP7FL, E-519). Unless otherwise stated, all other reagents were purchased from Sigma-Aldrich. Enzymatic reactions were conducted in black flat-bottom low volume polystyrene 384-well plates (Grenier) and 15 μL total volume. USP7 (2.5 nM, 5 μL) was incubated in assay buffer (50 mM HEPES (pH 7.2), 150 mM NaCl, 5 mM DTT, 0.05% BSA (w/v), 0.05% CHAPS) in the presence or absence of inhibitor (5 μL). Inhibitors were stored as 10 mM DMSO stocks in an inert environment (low humidity, dark, low oxygen, room temperature) using a Storage Pod System and serial dilutions were prepared in buffer just prior to the assay (from 200 to 0.003 μM, 11 dp curve). Following incubation at room temperature for 30 min, the enzymatic reactions were initiated by dispensing the Ub substrate (50 nM, 5 μL). FP was measured every 5 min over a period of 1.5 h (within the linear range of the assay) using a Pherastar FSX (BMG Labtech) exciting at 530 nm and measuring the amount of parallel and perpendicular light at 575 nm. The FP signal was subsequently normalised to the control without compound present. Data were plotted and fitted, and the concentrations resulting in 50% inhibition (IC50) were calculated using the non-linear regression curve fitting model using GraphPad Prism.

[1] = read-out: USP7 IC50 activity (Table 3a, classes)
[2] = unit not given in Table 3b (Table 1 and key of Table 3a use μM), read-out: USP7 IC50 activity (Table 3b)

Chain of USP7 (Q93009 whole entry): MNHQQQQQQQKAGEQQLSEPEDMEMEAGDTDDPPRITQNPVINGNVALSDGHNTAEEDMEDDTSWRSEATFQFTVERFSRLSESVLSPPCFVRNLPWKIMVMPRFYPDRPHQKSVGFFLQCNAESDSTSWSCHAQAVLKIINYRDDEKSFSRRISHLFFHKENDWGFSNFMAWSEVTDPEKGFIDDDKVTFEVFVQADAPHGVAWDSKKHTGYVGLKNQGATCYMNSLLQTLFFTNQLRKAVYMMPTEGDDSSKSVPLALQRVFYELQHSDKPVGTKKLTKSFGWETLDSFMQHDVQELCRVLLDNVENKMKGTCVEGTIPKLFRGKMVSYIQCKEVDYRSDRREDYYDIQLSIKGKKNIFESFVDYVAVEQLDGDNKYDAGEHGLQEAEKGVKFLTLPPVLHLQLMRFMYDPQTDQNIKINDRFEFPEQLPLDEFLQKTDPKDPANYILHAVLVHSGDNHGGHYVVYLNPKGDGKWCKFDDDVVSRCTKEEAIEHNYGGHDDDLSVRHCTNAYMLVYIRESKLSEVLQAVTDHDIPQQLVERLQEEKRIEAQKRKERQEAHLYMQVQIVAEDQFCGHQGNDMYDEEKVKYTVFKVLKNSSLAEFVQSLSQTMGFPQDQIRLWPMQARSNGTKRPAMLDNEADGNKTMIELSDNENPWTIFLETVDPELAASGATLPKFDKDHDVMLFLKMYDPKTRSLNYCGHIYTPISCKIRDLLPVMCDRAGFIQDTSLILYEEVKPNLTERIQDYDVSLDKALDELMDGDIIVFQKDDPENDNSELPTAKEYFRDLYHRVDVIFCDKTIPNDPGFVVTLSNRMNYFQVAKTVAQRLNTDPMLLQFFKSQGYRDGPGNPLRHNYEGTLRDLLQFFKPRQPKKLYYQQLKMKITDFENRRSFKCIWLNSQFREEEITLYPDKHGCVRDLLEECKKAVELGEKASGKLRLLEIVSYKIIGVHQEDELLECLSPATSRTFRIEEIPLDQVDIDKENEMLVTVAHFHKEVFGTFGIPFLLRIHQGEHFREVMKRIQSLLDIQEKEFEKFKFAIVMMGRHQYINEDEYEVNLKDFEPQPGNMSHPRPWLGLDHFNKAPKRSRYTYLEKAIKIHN

Row | IC50 [1] | IC50 [2] | Compound
1 | 0.25 to 2 µM | 0.378 µM | O=C(c1ccc(Cl)cc1)N1CCC(O)(Cn2cnc3c(cc(Cl)n3-c3ccc(C4COCC5(CC5)N4)cc3)c2=O)CC1 (centres unmarked) [Example 18, 7-(4-(7-Oxa-4-azaspiro[2.5]octan-5-yl)phenyl)-6-chloro-3-((1-(4-chlorobenzoyl)-4-hydroxypiperidin-4-yl)methyl)-3,7-dihydro-4H-pyrrolo[2,3-d]pyrimidin-4-one]
2 | 0.25 to 2 µM | 2.09 µM | CN1CCOCC1c1ccc(-n2c(Cl)cc3c(=O)n(CC4(O)CCN(C(=O)C5(C)CC5)CC4)cnc32)cc1 (centres unmarked) [Example 75, 6-Chloro-3-((4-hydroxy-1-(1-methylcyclopropane-1-carbonyl)piperidin-4-yl)methyl)-7-(4-(4-methylmorpholin-3-yl)phenyl)-3,7-dihydro-4H-pyrrolo[2,3-d]pyrimidin-4-one]
3 | 0.1 to 0.25 µM | 0.167 µM | C[C@H]1CN[C@H](c2ccc(-n3c(Cl)cc4c(=O)n(CC5(O)CCN(C(=O)c6ccc(C(F)F)cc6)CC5)cnc43)cc2)CO1 [Example 91, 6-Chloro-3-((1-(4-(difluoromethyl)benzoyl)-4-hydroxypiperidin-4-yl)methyl)-7-(4-((3R,6S)-6-methylmorpholin-3-yl)phenyl)-3,7-dihydro-4H-pyrrolo[2,3-d]pyrimidin-4-one]
4 | < 0.1 µM | 0.079 µM | CC1(C)CN[C@H](c2ccc(-n3c(Cl)cc4c(=O)n(CC5(O)CCN(C(=O)C6(C7CC7)CC6)CC5)cnc43)cc2)CO1 (single isomer, unassigned) [Example 41]
5 | < 0.1 µM | 0.038 µM | O=C(c1ccc(Cl)cc1)N1CCC(O)(Cn2cnc3c(cc(Cl)n3-c3ccc([C@H]4COCCN4)cc3)c2=O)CC1 (single isomer, unassigned) [Example 76]
6 | 0.1 to 0.25 µM | 0.113 µM | O=C(c1ccc(Cl)cc1)N1CCC(O)(Cn2cnc3c(cc(Cl)n3-c3ccc([C@@H]4COC5(CCC5)CN4)cc3)c2=O)CC1 (racemic) [Example 44, 7-(4-(5-Oxa-8-azaspiro[3.5]nonan-7-yl)phenyl)-6-chloro-3-((1-(4-chlorobenzoyl)-4-hydroxypiperidin-4-yl)methyl)-3,7-dihydro-4H-pyrrolo[2,3-d]pyrimidin-4-one]
7 | 0.1 to 0.25 µM | 0.222 µM | C[C@H]1CN[C@H](c2ccc(-n3c(Cl)cc4c(=O)n(CC5(O)CCN(C(=O)c6ccc(F)cc6F)CC5)cnc43)cc2)CO1 [Example 22, 6-Chloro-3-((1-(2,4-difluorobenzoyl)-4-hydroxypiperidin-4-yl)methyl)-7-(4-((3R,6S)-6-methylmorpholin-3-yl)phenyl)-3,7-dihydro-4H-pyrrolo[2,3-d]pyrimidin-4-one]
8 | < 0.1 µM | 0.093 µM | C[C@@H]1CN[C@@H](c2ccc(-n3c(Cl)cc4c(=O)n(CC5(O)CCN(C(=O)C6(C)CC6)CC5)cnc43)cc2)CO1 [Example 107, 6-Chloro-3-((4-hydroxy-1-(1-methylcyclopropane-1-carbonyl)piperidin-4-yl)methyl)-7-(4-((3S,6R)-6-methylmorpholin-3-yl)phenyl)-3,7-dihydro-4H-pyrrolo[2,3-d]pyrimidin-4-one]
9 | 0.25 to 2 µM | 0.313 µM | O=C(c1ccc(Cl)cc1)N1CCC(O)(Cn2cnc3c(cc(Cl)n3-c3ccc(C4COC5CC5N4)cc3)c2=O)CC1 (centres unmarked) [Example 60, 7-(4-(2-Oxa-5-azabicyclo[4.1.0]heptan-4-yl)phenyl)-6-chloro-3-((1-(4-chlorobenzoyl)-4-hydroxypiperidin-4-yl)methyl)-3,7-dihydro-4H-pyrrolo[2,3-d]pyrimidin-4-one]
10 | 0.1 to 0.25 µM | 0.134 µM | O=C(C[C@H](c1ccccc1)C(F)(F)F)N1CCC(O)(Cn2cnc3c(cc(Cl)n3-c3ccc([C@H]4COCCN4)c(Cl)c3)c2=O)CC1 (mixture of isomers) [Example 86, 6-Chloro-7-(3-chloro-4-((S)-morpholin-3-yl)phenyl)-3-((4-hydroxy-1-((R)-4,4,4-trifluoro-3-phenylbutanoyl)piperidin-4-yl)methyl)-3,7-dihydro-4H-pyrrolo[2,3-d]pyrimidin-4-one and 6-chloro-7-(3-chloro-4-((R)-morpholin-3-yl)phenyl)-3-((4-hydroxy-1-((R)-4,4,4-trifluoro-3-phenylbutanoyl)piperidin-4-yl)methyl)-3,7-dihydro-4H-pyrrolo[2,3-d]pyrimidin-4-one (1:1)]
11 | < 0.1 µM | 0.016 µM | C[C@H]1CN[C@H](c2ccc(-n3c(Cl)cc4c(=O)n(CC5(O)CCN(C(=O)C[C@H](c6ccccc6)C(F)(F)F)CC5)cnc43)cc2)CO1 [Example 7, 6-Chloro-3-((4-hydroxy-1-((R)-4,4,4-trifluoro-3-phenylbutanoyl)piperidin-4-yl)methyl)-7-(4-((3R,6S)-6-methylmorpholin-3-yl)phenyl)-3,7-dihydro-4H-pyrrolo[2,3-d]pyrimidin-4-one]
12 | < 0.1 µM | 0.015 µM | O=C(C[C@H](c1ccccc1)C(F)(F)F)N1CCC(O)(Cn2cnc3c(cc(Cl)n3-c3ccc([C@@H]4COCCN4)cc3)c2=O)CC1 (single isomer, unassigned) [Example 81]
13 | < 0.1 µM | 0.045 µM | CC1(C)CN[C@H](c2ccc(-n3c(Cl)cc4c(=O)n(CC5(O)CCN(C(=O)C6(C)CC6)CC5)cnc43)cc2)CO1 (single isomer, unassigned) [Example 98, (R)-6-Chloro-7-(4-(6,6-dimethylmorpholin-3-yl)phenyl)-3-((4-hydroxy-1-(1-methylcyclopropane-1-carbonyl)piperidin-4-yl)methyl)-3,7-dihydro-4H-pyrrolo[2,3-d]pyrimidin-4-one or (S)-6-chloro-7-(4-(6,6-dimethylmorpholin-3-yl)phenyl)-3-((4-hydroxy-1-(1-methylcyclopropane-1-carbonyl)piperidin-4-yl)methyl)-3,7-dihydro-4H-pyrrolo[2,3-d]pyrimidin-4-one]
14 | < 0.1 µM | 0.073 µM | CC[C@@H]1CN[C@@H](c2ccc(-n3c(Cl)cc4c(=O)n(CC5(O)CCN(C(=O)C6(C)CC6)CC5)cnc43)cc2)CO1 [Example 105, 6-Chloro-7-(4-((3S,6R)-6-ethylmorpholin-3-yl)phenyl)-3-((4-hydroxy-1-(1-methylcyclopropane-1-carbonyl)piperidin-4-yl)methyl)-3,7-dihydro-4H-pyrrolo[2,3-d]pyrimidin-4-one]
15 | 0.1 to 0.25 µM | 0.156 µM | CC1(C)CN[C@H](c2ccc(-n3c(Cl)cc4c(=O)n(CC5(O)CCN(C(=O)C6(C7CC7)CC6)CC5)cnc43)cc2)CO1 (single isomer, unassigned) [Example 40]
16 | 0.1 to 0.25 µM | 0.118 µM | CC1(C)CN[C@H](c2ccc(-n3c(Cl)cc4c(=O)n(CC5(O)CCN(C(=O)c6ccc(F)cc6)CC5)cnc43)cc2)CO1 (single isomer, unassigned) [Example 29]
17 | < 0.1 µM | 0.052 µM | O=C(c1ccc(Cl)cc1)N1CCC(O)(Cn2cnc3c(cc(Cl)n3-c3ccc([C@@H]4COCCN4)cc3)c2=O)CC1 (single isomer, unassigned) [Example 77]
18 | 0.1 to 0.25 µM | 0.128 µM | O=C(c1ccc(Cl)cc1)N1CCC(O)(Cn2cnc3c(cc(Cl)n3-c3ccc([C@H]4CO[C@H](C5CC5)CN4)cc3)c2=O)CC1 (single isomer, unassigned) [Example 61]
19 | < 0.1 µM | 0.045 µM | CC1(C(=O)N2CCC(O)(Cn3cnc4c(cc(Cl)n4-c4ccc([C@@H]5COCCN5)cc4)c3=O)CC2)CC1C(F)(F)F (stereo partly drawn) [Example 84, 6-Chloro-3-((4-hydroxy-1-(1-methyl-2-(trifluoromethyl)cyclopropane-1-carbonyl)piperidin-4-yl)methyl)-7-(4-((R)-morpholin-3-yl)phenyl)-3,7-dihydro-4H-pyrrolo[2,3-d]pyrimidin-4-one]
20 | 0.1 to 0.25 µM | 0.144 µM | C[C@H]1CN[C@H](c2ccc(-n3c(Cl)cc4c(=O)n(CC5(O)CCN(C(=O)c6ccccc6Cl)CC5)cnc43)cc2)CO1 [Example 31, 6-Chloro-3-((1-(2-chlorobenzoyl)-4-hydroxypiperidin-4-yl)methyl)-7-(4-((3R,6S)-6-methylmorpholin-3-yl)phenyl)-3,7-dihydro-4H-pyrrolo[2,3-d]pyrimidin-4-one]
21 | 0.25 to 2 µM | 1.15 µM | C[C@H]1CN[C@H](c2ccc(-n3c(Cl)cc4c(=O)n(CC5(O)CCN(C(=O)c6cccc(F)c6F)CC5)cnc43)cc2)CO1 [Example 39, 6-Chloro-3-((1-(2,3-difluorobenzoyl)-4-hydroxypiperidin-4-yl)methyl)-7-(4-((3R,6S)-6-methylmorpholin-3-yl)phenyl)-3,7-dihydro-4H-pyrrolo[2,3-d]pyrimidin-4-one]
22 | 0.1 to 0.25 µM | 0.156 µM | C[C@H]1CN[C@H](c2ccc(-n3c(Cl)cc4c(=O)n(CC5(O)CCN(C(=O)c6ccc(C(F)(F)F)cc6)CC5)cnc43)cc2)CO1 [Example 65, 6-Chloro-3-((4-hydroxy-1-(4-(trifluoromethyl)benzoyl)Piperidin-4-yl)methyl)-7-(4-((3R,6S)-6-methylmorpholin-3-yl)phenyl)-3,7-dihydro-4H-pyrrolo[2,3-d]pyrimidin-4-one]

— US20250122223A1, “HETEROCYCLIC COMPOUNDS AS UBIQUITIN SPECIFIC PROTEASE 7 INHIBITORS” (ALMAC DISCOVERY LIMITED, priority 2022, published 2025)
